Results published in paper PMC11567786 (ACS chemical biology, 2024).

Experiments:
[1] = biological target: T1, Sm-EboD (Sporocytophaga myxococcoides, UniProt P0DY70); assay: large-scale reaction, HR-MS, 1D and 2D NMR of isolated product; format: biochemical; settings: NAD+, Co2+; Tris-HCl pH 7.5; 37°C
T1 sequence (P0DY70 1-387): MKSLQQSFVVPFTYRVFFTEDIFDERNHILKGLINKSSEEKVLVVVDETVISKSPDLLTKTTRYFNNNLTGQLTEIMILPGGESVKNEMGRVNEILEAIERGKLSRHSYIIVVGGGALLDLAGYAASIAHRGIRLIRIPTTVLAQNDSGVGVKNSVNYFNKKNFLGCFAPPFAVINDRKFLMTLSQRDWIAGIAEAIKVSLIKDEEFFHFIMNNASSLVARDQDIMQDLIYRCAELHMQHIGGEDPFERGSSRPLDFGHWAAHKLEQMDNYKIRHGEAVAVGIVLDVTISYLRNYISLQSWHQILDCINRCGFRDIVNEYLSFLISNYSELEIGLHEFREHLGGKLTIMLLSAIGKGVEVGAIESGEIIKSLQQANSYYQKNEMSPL

[2] = biological target: T1, Sm-EboD; assay: TLC, product formation; format: biochemical; settings: NAD+, Co2+; Tris-HCl pH 7.5; 37°C

Row | SMILES | large-scale reaction, HR-MS, 1D and 2D NMR of isolated product [1] | TLC, product formation [2]
1 | O=C1C[C@@H](O)[C@@H](O)[C@@H](O)[C@@H]1O [DEI, 2-deoxy-4-epi-scyllo-inosose] | revealed the identity of the compound to be 2-deoxy-4-epi-scyllo-inosose (DEI) | –
2 | O=P(O)(O)OC[C@H]1OC(O)[C@@H](O)[C@@H](O)[C@@H]1O (some centres unmarked) [Man6P] | – | gave the same product with an even better conversion rate
